Reference: patent US20230131501A1, “THERAPEUTIC USES OF INHIBITORS OF THE RNA-BINDING PROTEIN HuR” (University of Kansas, priority 2020, published 2023)
Like-named read-outs stand apart in the source and are kept apart here. {Fluorescein} = fluorescein label

Experiments:
HCT116 β/w = assay: Cytotoxicity assay (WST-8); type: cell-based; conditions: Homo sapiens, HCT-116, 96 h incubation
Procedure: (§1) Cells were seeded in 96-well culture plates (5,000 cells/well) and treated with titrated compounds in triplicate. After 96 h incubation, cell growth medium was removed and proliferation reagent WST-8 (Sigma) was added to each well and incubated at 37° C. for 1-3 h. Absorbance was then measured with a plate reader at 450 nm with correction at 650 nm. The results were expressed as the percentage of absorbance of treated wells versus that of vehicle control.

MIAPaCa-2 = assay: Cytotoxicity assay (WST-8); type: cell-based; conditions: Homo sapiens, MIA PaCa-2, 96 h incubation
Procedure: as §1

[1] = target: T1, HuR protein interaction with the ARE site of Msi1 mRNA (HuR-Msi1^ARE) (Homo sapiens, UniProt Q15717); assay: Fluorescence polarization (FP) assay, inhibition of HuR-Msi1 ARE interaction; type: binding; conditions: full-length human HuR, read-out: Ki via FP assay
T1 construct: full-length human HuR protein was produced by the KU COBRE-PSF Protein Purification Group; made in house
T1 sequence (Q15717 whole entry): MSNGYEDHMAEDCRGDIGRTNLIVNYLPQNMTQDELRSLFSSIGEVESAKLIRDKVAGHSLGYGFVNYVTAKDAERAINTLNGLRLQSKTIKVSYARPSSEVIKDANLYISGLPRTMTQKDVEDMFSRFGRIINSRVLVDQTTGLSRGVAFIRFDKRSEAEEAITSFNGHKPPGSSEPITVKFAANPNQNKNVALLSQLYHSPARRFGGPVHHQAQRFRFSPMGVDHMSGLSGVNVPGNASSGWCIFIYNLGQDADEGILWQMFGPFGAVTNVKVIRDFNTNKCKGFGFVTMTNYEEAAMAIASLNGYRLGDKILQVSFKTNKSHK
Excerpt: (§2) A fluorescence polarization (FP)-based binding assay was utilized to assess the inhibition of HuR protein interaction with the ARE site of Msi1 mRNA (“HuR-Msi1^ARE”) by compounds of interest. Briefly, full-length human HuR protein was produced by the KU COBRE-PSF Protein Purification Group and Bcl2, Msi1 and XIAP mRNA sequences (16 nt) were designed based on literature precedent^23,24,31,32. Fluorescein labeled RNAs were purchased from Dharmacon with the following sequences: Msi1 RNA: 5′-GCUUUUAUUUAUUUUG-3′-fluorescein; Bcl-2 RNA: 5′-AAAAGAUUUAUUUAUU-3′-fluorescein; XIAP RNA: 5′-UAGUUAUUUUUA UGUC-3′-fluorescein, and a 16-nt degenerative RNA with 3′-fluorescein label was used as a negative control.

MDA-MB-231 = assay: Cytotoxicity assay (WST-8); type: cell-based; conditions: Homo sapiens, read-out: Cytotoxicity (IC50, μM) MDA-MB-231
Procedure: as §1, with “The cytotoxicity of the tested compounds in several cancer cell lines (HCT116 β/w, MIAPaCa-2, and MDA-MB-231) was determined by a cytotoxicity assay, where the results are provided in Table 1. Cells” for “Cells”, “control. IC50, the drug concentration causing 50% growth inhibition, was calculated via sigmoid curve fitting using GraphPad Prism 5.0. […]” for “control.”

[2] = tested on: HuR target mRNAs (Bcl-2, XIAP, Msi1, HuR) in HCT-116 β/w cells; assay: mRNA stability by qRT-PCR after co-treatment with Actinomycin D; type: cell-based; set-up: dose or concentration left out as unconfirmed
Procedure: HuR target mRNA levels were measured by qRT-PCR.
(§3) As HuR promotes stability of its target mRNAs, it is expected that HuR-inhibitors will block HuR function and shorten the half-life (t1/2) of target mRNAs. mRNA stability was determined via quantitative real-time PCR (qRT-PCR) after co-treatment of compounds of the present technology and Actinomycin D (a transcription inhibitor). […] Because HuR also increases the translation of target mRNAs, the effect of compounds of the present technology was tested on protein levels of HuR targets by Western blot analysis.

[3] = tested on: protein levels of HuR targets in MDA-MB-231 cells; assay: Western blot of HuR targets; type: cell-based
Procedure: as §3

[4] = tested on: protein levels of HuR targets in HCT-116 β/w cells; assay: Western blot of HuR targets; type: cell-based
Procedure: as §3

[5] = tested on: PARP cleavage, LC3 conversion, and RIP3 activation; assay: Western blot of cell death mechanisms; type: cell-based
Excerpt: FIGS. 8A-8C provide the results of Western blot analysis illustrating that KH-3 decreases the protein levels of HuR targets in HCT-116 β/w cells (FIG. 8A) and MDA-MB-231 cells (FIG. 8B) and is involved in cell death mechanisms by inducing PARP cleavage, LC3 conversion, and RIP3 activation (FIG. 8C), according to the working examples.
as §3

[6] = tested on: Musashi 2 (Msi2) mRNA in PC3 cells; assay: mRNA level of HuR target after chemotherapy; type: cell-based
Excerpt: FIGS. 1A-1F provide the results of studies illustrating RNA-binding protein Hu antigen R (HuR) is involved in chemo/radiation-induced tumor response, according to the working examples. […] HuR knock-down by siRNA sensitized cancer cells to X-ray radiation, with an enhancement ratio (ER) of 1.5 versus the negative control (NC) siRNA (FIG. 1F).

[7] = tested on: docetaxel-resistant MDA-MB-231 cell line (231-TR); assay: Cytotoxicity assay, docetaxel-resistant cells; type: cell-based; conditions: 231-TR vs MDA-MB-231
Procedure: (§4) To further mimic clinical conditions and assess overcoming acquired chemo-resistance via compounds of the present technology, docetaxel-resistant and doxorubicin-resistant MDA-MB-231 cells were generated by continuous exposure of cells to increasing concentrations of docetaxel (TXT) or doxorubicin (DXR). Cytotoxicity assays were then performed to assess the chemo-resistance of the produced cell lines as well as assess the sensitivity of such chemo-resistant cell lines to compounds of the present technology.
(§5) Cytotoxicity assays were then performed utilizing concentrations of KH-3 that were below the lethal threshold for the compound (a “sub-lethal concentration”) in combination with docetaxel or doxorubicin to determine whether compounds of the present technology may sensitize cancer cell lines (including chemo-resistance cancer cell lines) to chemotherapy. FIGS. 11A-11B illustrate that sub-lethal concentrations of KH-3 sensitizes both MDA-MB-231 cells and docetaxel-resistant 231-TR cells to docetaxel treatment (FIGS. 11A-11B), and FIGS. 11C-D illustrate that sub-lethal concentrations of KH-3 sensitizes both MDA-MB-231 cells and doxorubicin-resistant 231-DR cells to doxorubicin treatment (FIGS. 11C-11D).

[8] = tested on: doxorubicin-resistant MDA-MB-231 cell line (231-DR); assay: Cytotoxicity assay, doxorubicin-resistant cells; type: cell-based; conditions: 231-DR vs MDA-MB-231
Procedure: as §4, §5

[9] = target: T2, full-length human HuR protein (Homo sapiens, UniProt Q15717); assay: FP-based binding of fluorescein-labeled RNAs to HuR; conditions: 16 nt RNA oligo, FITC-RNA 2 nM; read-out: Kd of HuR binding with fluorescein-labeled target RNA
T2 construct: full-length human HuR protein was produced by the KU COBRE-PSF Protein Purification Group; made in house
T2 sequence (Q15717 whole entry): as above
Procedure: FIG. 3 provides the results of a fluorescence polarization (FP)-based binding assay, illustrating that full length HuR binds to FITC-Bcl-2, Msi1, and XIAP RNA but not to scrambled oligo-FITC, according to the working examples. The concentration of FITC-RNA used in the assay is 2 nM.
as §2

[10] = MDA-MB-231, 96 h incubation, WST-8

Molecule	IC50 (HCT116 β/w) [µM]	IC50 (MIAPaCa-2) [µM]	Ki [1] [µM]	IC50 (MDA-MB-231; [10]) [µM]	further results
O=C(O)/C=C/c1cc2cc(NS(=O)(=O)c3ccccc3)ccc2s1 [KH-1A, (E)-3-(5-(phenylsulfonamido)benzo[b]thiophen-2-yl)acrylic acid]	> 100	> 100	5.82	> 100	–
CCOC(=O)/C=C/c1cc2cc(NS(=O)(=O)c3ccccc3)ccc2s1 [KH-1B, (E)-ethyl 3-(5-(phenylsulfonamido)benzo[b]thiophen-2-yl)acrylate]	35.6	37.6	> 20	41.8	–
O=C(/C=C/c1cc2cc(NS(=O)(=O)c3ccccc3)ccc2s1)NO [KH-1]	0.86	1.21	9.2	–	IC50 (MDA-MB-231; MDA-MB-231, 96 h): 0.98 µM
Cc1ccc(S(=O)(=O)Nc2ccc3sc(/C=C/C(=O)O)cc3c2)cc1 [KH-2A, (E)-3-(5-(4-methylphenylsulfonamido)benzo[b]thiophen-2-yl)acrylic acid]	> 100	> 100	2.92	> 100	–
CCOC(=O)/C=C/c1cc2cc(NS(=O)(=O)c3ccc(C)cc3)ccc2s1 [KH-2B, (E)-ethyl 3-(5-(4-methylphenylsulfonamido)benzo[b]thiophen-2-yl)acrylate]	40.1	39.5	> 20	43	–
Cc1ccc(S(=O)(=O)Nc2ccc3sc(/C=C/C(=O)NO)cc3c2)cc1 [KH-2]	1.42	2.33	5.55	–	IC50 (MDA-MB-231; MDA-MB-231, 96 h): 1.46 µM
CC(C)(C)c1ccc(S(=O)(=O)Nc2ccc3sc(/C=C/C(=O)O)cc3c2)cc1 [KH-3A, (E)-3-(5-(4-(tert-butyl)phenylsulfonamido)benzo[b]thiophen-2-yl)acrylic acid]	> 100	> 100	1.38	> 100	–
CCOC(=O)/C=C/c1cc2cc(NS(=O)(=O)c3ccc(C(C)(C)C)cc3)ccc2s1 [KH-3B, (E)-ethyl 3-(5-(4-(tert-butyl)phenylsulfonamido)benzo[b]thiophen-2-yl)acrylate]	68.2	45.5	> 20	45.6	stability of HuR target mRNAs (Bcl-2, XIAP, Msi1, HuR mRNA) [2]: not exhibited; protein levels of HuR targets [3]: not exhibited; protein levels of HuR targets [4]: not exhibited; cell death mechanisms (PARP cleavage, LC3 conversion, RIP3 activation) [5]: not exhibited
Cc1cc(C)c(S(=O)(=O)Nc2ccc3sc(/C=C/C(=O)O)cc3c2)c(C)c1 [KH-4A, (E)-3-(5-(2,4,6-trimethylphenylsulfonamido)benzo[b]thiophen-2-yl)acrylic acid]	> 100	> 100	2.92	> 100	–
CCOC(=O)/C=C/c1cc2cc(NS(=O)(=O)c3c(C)cc(C)cc3C)ccc2s1 [KH-4B, (E)-ethyl 3-(5-(2,4,6-trimethylphenylsulfonamido)benzo[b]thiophen-2-yl)acrylate]	91.4	30.4	> 20	> 100	–
Cc1cc(C)c(S(=O)(=O)Nc2ccc3sc(/C=C/C(=O)NO)cc3c2)c(C)c1 [KH-4]	–	–	1.41	–	IC50 (MDA-MB-231; MDA-MB-231, 96 h): 1.04 µM
CC(=O)O[C@@]12CO[C@@H]1C[C@H](O)[C@@]1(C)C(=O)[C@H](O)C3=C(C)[C@@H](OC(=O)[C@H](O)[C@@H](NC(=O)OC(C)(C)C)c4ccccc4)C[C@@](O)([C@@H](OC(=O)c4ccccc4)[C@H]21)C3(C)C [docetaxel]	–	–	–	–	mRNA levels of HuR target Musashi 2 (Msi2) [6]: increased the mRNA levels; IC50 in 231-TR compared to parental cell line [7]: more than 8 fold
COc1cccc2c1C(=O)c1c(O)c3c(c(O)c1C2=O)C[C@@](O)(C(=O)CO)C[C@@H]3O[C@H]1C[C@H](N)[C@H](O)[C@H](C)O1 [doxorubicin]	–	–	–	–	IC50 in 231-DR compared to parental cell line [8]: about 10 fold
Bcl-2 RNA: Fluorescein labeled 16 nt RNA 5′-AAAAGAUUUAUUUAUU-3′-fluorescein (RNA, 3' {Fluorescein}, backbone not given here)	–	–	–	–	Kd [9]: 0.0063 µM
Msi1 RNA: Fluorescein labeled 16 nt RNA 5′-GCUUUUAUUUAUUUUG-3′-fluorescein (RNA, 3' {Fluorescein}, backbone not given here)	–	–	–	–	Kd [9]: 0.002 µM
XIAP RNA: Fluorescein labeled 16 nt RNA 5′-UAGUUAUUUUUA UGUC-3′-fluorescein (UAGUUAUUUUUAUGUC; RNA, 3' {Fluorescein}, backbone not given here)	–	–	–	–	Kd [9]: 0.0035 µM
